Source: PMC8126888 (RSC Medicinal Chemistry, 2020)
Read-outs that look alike come from different tables or passages of the source.

Key:
[1] = tested on: primary peritoneal mouse macrophages (PMM); assay: cells; details: Macrophage
[2] = tested on: Trypanosoma cruzi, Tulahuen CL2, beta-galactosidase strain; assay: microbe, parasite or virus in culture
[3] = tested on: Leishmania infantum MHOM/MA(BE)/67/ITMAP263 intracellular amastigotes; assay: microbe, parasite or virus in culture; details: Macrophage, in Mus musculus
physchem = details: HPLC, Ascentis Express RP Amide column, pH 7.4, eLogD, experimental
in vitro [4] = details: human
in vitro [5] = details: PAMPA
in vitro [6] = details: human, microsomes, human liver microsomes
in vitro [7] = details: human, HFF-1 cells
in vitro [8] = details: human, HepG2 cells
in vitro [9] = details: mouse, microsomes, pH 7.4, MLM CLint (uL/min/mg), mouse liver microsomes
in vitro [10] = details: PAMPA; remark: listed apart in the source
[11] = MRC5, read-out: T. cruzi Tulahuen C4 (LacZ) IC50
[12] = read-out: L. Inf. pIC50, from L. infantum intracellular amastigote IC50 (converted)
[13] = read-out: L. infantum MHOM/MA(BE)/67/ITMAP263 intracellular amastigotes IC50, intracellular amastigotes
[14] = MRC5, read-out: T. cruzi Tulahuen C4 (LacZ) IC50 (uM)
[15] = read-out: L. infantum MHOM/MA(BE)/67/ITMAP263 intracellular amastigotes IC50 (uM), intracellular amastigotes

CN(C)CCN(Cc1ccccc1)S(=O)(=O)c1ccccc1S(C)(=O)=O [DNDI0003367255]
IC50 ([1]; read-out: PMM IC50): > 64 µM | IC50 [2, 11]: > 64 µM | IC50 [3, 12]: > 64 µM | IC50 [3, 13]: > 64 µM | chromatographic logD (physchem): 2.6 | CC50 at 3 days (in vitro [4]): > 64 µM | Papp (in vitro [5]): 2.04 ×10⁻⁶ cm/s

COc1ccc(OC)c(S(=O)(=O)N(CCN2CCOCC2)Cc2ccccc2)c1 [DNDI0003368294]
IC50 ([1]; read-out: PMM IC50): > 64 µM | IC50 [2, 11]: > 64 µM | IC50 [3, 12]: 9.12 µM | IC50 [3, 13]: 9.06 µM | microsomal CLint at 0.5 μM (in vitro [6]; pH 7.4, HLM CLint): 227 µL/min/mg | chromatographic logD (physchem): 3.4 | CC50 at 3 days (in vitro [4]): > 64 µM | Papp (in vitro [5]): 5.27 ×10⁻⁶ cm/s

COc1ccc(C#N)cc1S(=O)(=O)N(Cc1ccccc1)Cc1ccccc1 [DNDI0003366138]
IC50 ([1]; read-out: PMM IC50): > 64 µM | IC50 [2, 11]: 8.16 µM | IC50 [3, 12]: 0.437 µM | IC50 [3, 13]: 0.44 µM | microsomal CLint at 0.5 μM (in vitro [6]; pH 7.4, HLM CLint): 304 µL/min/mg | CC50 at 3 days (in vitro [4]): 40.4 µM | Papp (in vitro [5]): 3.93 ×10⁻⁶ cm/s

COc1ccc(C(=O)N2CCOCC2)cc1S(=O)(=O)N(Cc1ccccc1)Cc1ccccc1 [DNDI0003368296]
IC50 ([1]; read-out: PMM IC50): 45.2 µM | IC50 [2, 11]: > 64 µM | IC50 [3, 12]: 0.457 µM | IC50 [3, 13]: 0.46 µM | microsomal CLint at 0.5 μM (in vitro [6]; pH 7.4, HLM CLint): 810 µL/min/mg | CC50 at 3 days (in vitro [4]): > 64 µM | Papp (in vitro [5]): 6.19 ×10⁻⁶ cm/s

COc1ccc(C(=O)N2CCCC2)cc1S(=O)(=O)N(Cc1ccccc1)Cc1ccccc1 [DNDI0003368297]
IC50 ([1]; read-out: PMM IC50): 32 µM | IC50 [2, 11]: > 64 µM | IC50 [3, 12]: 0.49 µM | IC50 [3, 13]: 0.48 µM | microsomal CLint at 0.5 μM (in vitro [6]; pH 7.4, HLM CLint): 796 µL/min/mg | chromatographic logD (physchem): 4.1 | CC50 at 3 days (in vitro [4]): > 64 µM | Papp (in vitro [5]): 4.91 ×10⁻⁶ cm/s

CNC(=O)c1ccc(OC)c(S(=O)(=O)N(Cc2ccccc2)Cc2ccccc2)c1 [DNDI0003368298]
IC50 ([1]; read-out: PMM IC50): 50.8 µM | IC50 [2, 11]: > 64 µM | IC50 [3, 12]: 0.708 µM | IC50 [3, 13]: 0.71 µM | microsomal CLint at 0.5 μM (in vitro [6]; pH 7.4, HLM CLint): 316 µL/min/mg | chromatographic logD (physchem): 3.8 | CC50 at 3 days (in vitro [4]): 4.87 µM | Papp (in vitro [5]): 10.4 ×10⁻⁶ cm/s

COc1ccccc1S(=O)(=O)N(Cc1ccccc1)CC(O)c1ccc(F)cc1 (stereo not shown) [DNDI0003389317]
IC50 ([1]; read-out: PMM IC50 (uM)): > 64 µM | CC50 (in vitro [7]): 10.5 µM | IC50 [2, 14]: 26.6 µM | CC50 (in vitro [8]): > 64 µM | microsomal CLint at 0.5 μM (in vitro [9]): 1240 µL/min/mg | IC50 [3, 12]: 11.5 µM | IC50 [3, 15]: 11.6 µM | microsomal CLint at 0.5 μM (in vitro [6]; pH 7.4, HLM CLint (uL/min/mg)): 610 µL/min/mg | chromatographic logD (physchem): 4.1 | CC50 at 3 days (in vitro [4]): 40.7 µM | Papp (in vitro [10]): 11.8 ×10⁻⁶ cm/s

COc1ccc(Cl)cc1S(=O)(=O)N(Cc1ccccc1)CC(N)c1ccc(F)cc1 (stereo not shown) [DNDI0003389932]
IC50 ([1]; read-out: PMM IC50 (uM)): 32 µM | CC50 (in vitro [7]): > 64 µM | IC50 [2, 14]: 4.64 µM | CC50 (in vitro [8]): 19.5 µM | microsomal CLint at 0.5 μM (in vitro [9]): 239 µL/min/mg | IC50 [3, 12]: 6.46 µM | IC50 [3, 15]: 6.39 µM | microsomal CLint at 0.5 μM (in vitro [6]; pH 7.4, HLM CLint (uL/min/mg)): 34 µL/min/mg | chromatographic logD (physchem): 4.3 | CC50 at 3 days (in vitro [4]): 14 µM | Papp (in vitro [10]): 0.59 ×10⁻⁶ cm/s

COc1ccc(N2CCN(C)CC2)cc1S(=O)(=O)N(Cc1ccc(F)cc1)Cc1ccc(F)cc1 [DNDI0003389645]
IC50 ([1]; read-out: PMM IC50 (uM)): 8 µM | CC50 (in vitro [7]): 8.45 µM | IC50 [2, 14]: 2.8 µM | CC50 (in vitro [8]): 26.8 µM | microsomal CLint at 0.5 μM (in vitro [9]): 212 µL/min/mg | IC50 [3, 12]: 0.398 µM | IC50 [3, 15]: 0.4 µM | microsomal CLint at 0.5 μM (in vitro [6]; pH 7.4, HLM CLint (uL/min/mg)): 152 µL/min/mg | chromatographic logD (physchem): 4.4 | CC50 at 3 days (in vitro [4]): 28.7 µM | Papp (in vitro [10]): 0.71 ×10⁻⁶ cm/s

COc1ccc(C(=O)N(C)CCO)cc1S(=O)(=O)N(Cc1ccc(F)cc1)Cc1ccc(F)cc1 [DNDI0003371175]
IC50 ([1]; read-out: PMM IC50 (uM)): > 64 µM | CC50 (in vitro [7]): 60.2 µM | IC50 [2, 14]: 25.3 µM | CC50 (in vitro [8]): 57.6 µM | microsomal CLint at 0.5 μM (in vitro [9]): 605 µL/min/mg | IC50 [3, 12]: 2.09 µM | IC50 [3, 15]: 2.08 µM | microsomal CLint at 0.5 μM (in vitro [6]; pH 7.4, HLM CLint (uL/min/mg)): 498 µL/min/mg | chromatographic logD (physchem): 3.8 | CC50 at 3 days (in vitro [4]): > 64 µM | Papp (in vitro [10]): 11.2 ×10⁻⁶ cm/s

COc1ccc(C(=O)NCCO)cc1S(=O)(=O)N(Cc1ccc(F)cc1)Cc1ccc(F)cc1 [DNDI0003371176]
IC50 ([1]; read-out: PMM IC50 (uM)): > 64 µM | CC50 (in vitro [7]): > 64 µM | IC50 [2, 14]: 44.3 µM | CC50 (in vitro [8]): > 64 µM | microsomal CLint at 0.5 μM (in vitro [9]): 410 µL/min/mg | IC50 [3, 12]: 2.51 µM | IC50 [3, 15]: 2.53 µM | microsomal CLint at 0.5 μM (in vitro [6]; pH 7.4, HLM CLint (uL/min/mg)): 131 µL/min/mg | chromatographic logD (physchem): 3.8 | CC50 at 3 days (in vitro [4]): > 64 µM | Papp (in vitro [10]): 5.78 ×10⁻⁶ cm/s

CN(C)CCN(Cc1ccccc1)S(=O)(=O)c1ccc(N2C(=O)CCC2=O)cc1 [DNDI0003368291]
IC50 ([1]; read-out: PMM IC50): > 64 µM | IC50 [2, 11]: > 64 µM | IC50 [3, 12]: > 64 µM | IC50 [3, 13]: > 64 µM | microsomal CLint at 0.5 μM (in vitro [6]; pH 7.4, HLM CLint): < 23 µL/min/mg | chromatographic logD (physchem): 2.5 | CC50 at 3 days (in vitro [4]): > 64 µM | Papp (in vitro [5]): 1.64 ×10⁻⁶ cm/s

CN(C)c1ncccc1S(=O)(=O)N(Cc1ccc(F)cc1)Cc1ccc(F)cc1 [DNDI0003389117]
IC50 ([1]; read-out: PMM IC50 (uM)): > 64 µM | CC50 (in vitro [7]): 16.7 µM | IC50 [2, 14]: 12.6 µM | CC50 (in vitro [8]): 56.7 µM | microsomal CLint at 0.5 μM (in vitro [9]): 903 µL/min/mg | IC50 [3, 12]: 6.03 µM | IC50 [3, 15]: 5.99 µM | microsomal CLint at 0.5 μM (in vitro [6]; pH 7.4, HLM CLint (uL/min/mg)): 728 µL/min/mg | chromatographic logD (physchem): 4.6 | CC50 at 3 days (in vitro [4]): 42.7 µM | Papp (in vitro [10]): 1.18 ×10⁻⁶ cm/s

COc1ccc(S(=O)(=O)N2CCOCC2)cc1C(=O)N(Cc1ccc(F)cc1)Cc1ccc(F)cc1 [DNDI0003389643]
IC50 ([1]; read-out: PMM IC50 (uM)): > 64 µM | CC50 (in vitro [7]): > 64 µM | IC50 [2, 14]: 16.6 µM | CC50 (in vitro [8]): > 64 µM | microsomal CLint at 0.5 μM (in vitro [9]): 610 µL/min/mg | IC50 [3, 12]: 17 µM | IC50 [3, 15]: 16.9 µM | microsomal CLint at 0.5 μM (in vitro [6]; pH 7.4, HLM CLint (uL/min/mg)): 717 µL/min/mg | chromatographic logD (physchem): 3.9 | CC50 at 3 days (in vitro [4]): > 64 µM | Papp (in vitro [10]): 4.14 ×10⁻⁶ cm/s
